# Measured values from PubChem BioAssay AID328 (DTP/NCI, 2004).
# “And” between values parts separate entries of the source, which are not always exact repeats. Identical values can stand only once. Inconclusive results and toxic doses are left out. Residues, ends and D or L forms follow the SMILES beside them. *: point of attachment. Cbz = O=C(OCc1ccccc1)*
# System: BDF1 mice, P388 leukemia ip, median survival T/C
# Assay: NCI In Vivo Anticancer Drug Screen. Data for tumor model P388 Leukemia (intraperitoneal) in B6D2F1 (BDF1) mice
# Details: endpoint: median survival time, higher = longer survival
# Outline: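 In tumour-bearing mice, survival after compound treatment is set against the vehicle group and given as a quotient.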
# [1] = dose: 100.0 mg/kg/injection, schedule: Q01DX009 (ip), vehicle: saline
# [2] = dose: 200.0 mg/kg/injection, schedule: Q01DX009 (ip), vehicle: saline
# [3] = dose: 400.0 mg/kg/injection, schedule: Q01DX009 (ip), vehicle: saline
# [4] = dose: 100.0 mg/kg/injection, schedule: Q04DX003 (ip), vehicle: saline with Tween-80
# [5] = dose: 200.0 mg/kg/injection, schedule: Q04DX003 (ip), vehicle: saline with Tween-80
# [6] = dose: 400.0 mg/kg/injection, schedule: Q04DX003 (ip), vehicle: saline with Tween-80
# [7] = dose: 50.0 mg/kg/injection, schedule: Q01DX009 (ip), vehicle: saline with Tween-80
# [8] = dose: 100.0 mg/kg/injection, schedule: Q01DX009 (ip), vehicle: saline with Tween-80
# [9] = dose: 200.0 mg/kg/injection, schedule: Q01DX009 (ip), vehicle: saline with Tween-80
# [10] = dose: 25.0 mg/kg/injection, schedule: Q04DX003 (ip), vehicle: saline with Tween-80
# [11] = dose: 50.0 mg/kg/injection, schedule: Q04DX003 (ip), vehicle: saline with Tween-80
compound,measurement,setting,value
O=C(O)C(Cc1ccccc1)NC(=O)C1CCCN1C(=O)OCc1ccccc1 (stereo not drawn) (Cbz-Pro-Phe-OH; configuration not given here),T/C,"dose: 50.0 mg/kg/injection, schedule: Q01DX005 (ip), vehicle: saline with Tween-80",97 % of control
same,T/C,"dose: 100.0 mg/kg/injection, schedule: Q01DX005 (ip), vehicle: saline with Tween-80",101 % of control
same,T/C,"dose: 200.0 mg/kg/injection, schedule: Q01DX005 (ip), vehicle: saline with Tween-80",95 % of control
CC1OC(OC2C(O)C(O)C(O)C(O)C2O)C(N)CC1N=C(N)C(=O)O (stereo not given),T/C,[1],91 % of control
same,T/C,[2],100 % of control
same,T/C,[3],116 % of control
COc1cccc(/C=N\O)c1,T/C,[4],104 % of control
same,T/C,[5],100 % of control
same,T/C,[6],104 % of control
COC(=O)/C(N=Nc1cccc(C)c1)=C(\C)O,T/C,[7],97 % of control
same,T/C,[8],103 % of control
C=Cn1ccc(=O)[nH]c1=O (tested in a mixture with another compound),T/C,[7],86 % of control
same,T/C,[8],121 % of control
same,T/C,[9],93 % of control
Nc1ccn(C2OC(COC3CCCCO3)C(OC3CCCCO3)C2OC2CCCCO2)c(=O)n1 (stereo not given),T/C,"dose: 50.0 mg/kg/injection, schedule: Q01DX007 (ip), vehicle: saline",108 % of control
same,T/C,"dose: 100.0 mg/kg/injection, schedule: Q01DX007 (ip), vehicle: saline",94 % of control
same,T/C,"dose: 100.0 mg/kg/injection, schedule: Q04DX003 (ip), vehicle: saline",90 % of control
same,T/C,"dose: 200.0 mg/kg/injection, schedule: Q01DX007 (ip), vehicle: saline",94 % of control
same,T/C,"dose: 200.0 mg/kg/injection, schedule: Q04DX003 (ip), vehicle: saline",86 % of control
same,T/C,"dose: 400.0 mg/kg/injection, schedule: Q01DX007 (ip), vehicle: saline",100 % of control
same,T/C,"dose: 400.0 mg/kg/injection, schedule: Q04DX003 (ip), vehicle: saline",104 % of control
COC1CCCCC1Br (stereo not given),T/C,[1],113 % of control
same,T/C,[2],109 % of control
same,T/C,[3],104 % of control
CC1=C(C)C(=O)c2c(OC(=O)c3ccccc3)c(Cl)cc(OC(=O)c3ccccc3)c2C1=O,T/C,[10],93 % of control
same,T/C,[11],92 % of control
same,T/C,[4],89 % of control and 94 % of control
same,T/C,[5],93 % of control
same,T/C,[6],109 % of control
C=CCN(C)/N=N/c1[nH]ncc1C(N)=O,T/C,[7],104 % of control
same,T/C,[11],104 % of control
same,T/C,[4],109 % of control
same,T/C,[9],87 % of control
same,T/C,[5],109 % of control
NCC(O)COc1ccccc1N (stereo not given),T/C,"dose: 3.0 mg/kg/injection, schedule: Q01DX009 (ip), vehicle: saline",100 % of control
same,T/C,"dose: 3.0 mg/kg/injection, schedule: Q04DX003 (ip), vehicle: saline",108 % of control and 109 % of control
same,T/C,"dose: 6.0 mg/kg/injection, schedule: Q01DX009 (ip), vehicle: saline",100 % of control
same,T/C,"dose: 6.0 mg/kg/injection, schedule: Q04DX003 (ip), vehicle: saline",95 % of control and 109 % of control
same,T/C,"dose: 12.0 mg/kg/injection, schedule: Q01DX009 (ip), vehicle: saline",96 % of control
same,T/C,"dose: 12.0 mg/kg/injection, schedule: Q04DX003 (ip), vehicle: saline",100 % of control and 113 % of control
CC1(C)N=C(N)N=C(N)N1c1cccc(CNC(=O)Nc2cccc(S(=O)(=O)F)c2)c1,T/C,[7],154 % of control
same,T/C,[11],100 % of control
same,T/C,[8],168 % of control
same,T/C,[4],100 % of control
O=[N+]([O-])c1ccc(/C=N/c2ncc(Br)s2)o1,T/C,"dose: 25.0 mg/kg/injection, schedule: Q01DX009 (ip), vehicle: saline with Tween-80",120 % of control
same,T/C,[10],104 % of control and 118 % of control
same,T/C,[8],90 % of control
same,T/C,[4],118 % of control
same,T/C,[5],90 % of control
CCOC(=O)N1CCN(C(=O)OCC)CC1,T/C,[7],100 % of control
same,T/C,[8],100 % of control
same,T/C,[4],90 % of control
same,T/C,[9],95 % of control
CC1(C)O[C@@H]2C[C@H]3[C@@H]4CCC5=CC(=O)C=C[C@]5(C)[C@@]4(F)[C@@H](O)C[C@]3(C)[C@]2(C(=O)CO)O1,T/C,[7],100 % of control
same,T/C,[4],108 % of control
same,T/C,[5],100 % of control
CC1=[N+](C)C(C)(C)CC(C)O1 (stereo not given),T/C,"dose: 4.5 mg/kg/injection, schedule: Q01DX009 (ip), vehicle: saline",100 % of control
same,T/C,"dose: 6.25 mg/kg/injection, schedule: Q01DX009 (ip), vehicle: saline",100 % of control
same,T/C,"dose: 7.0 mg/kg/injection, schedule: Q01DX009 (ip), vehicle: saline",108 % of control
same,T/C,"dose: 11.0 mg/kg/injection, schedule: Q01DX009 (ip), vehicle: saline",100 % of control
same,T/C,"dose: 12.5 mg/kg/injection, schedule: Q01DX009 (ip), vehicle: saline",95 % of control
same,T/C,"dose: 16.5 mg/kg/injection, schedule: Q01DX009 (ip), vehicle: saline",103 % of control and 104 % of control
same,T/C,"dose: 37.5 mg/kg/injection, schedule: Q01DX009 (ip), vehicle: saline",92 % of control and 109 % of control
same,T/C,[2],90 % of control
CC(C)(C)c1cccc(S(=O)(=O)Oc2ccccc2[N+](=O)[O-])c1,T/C,"dose: 100.0 mg/kg/injection, schedule: Q01DX001 (ip), vehicle: saline sonified",100 % of control
same,T/C,"dose: 200.0 mg/kg/injection, schedule: Q01DX001 (ip), vehicle: saline sonified",118 % of control
same,T/C,"dose: 400.0 mg/kg/injection, schedule: Q01DX001 (ip), vehicle: saline sonified",95 % of control
O=[N+]([O-])c1ccc(Sc2ccc(Cl)cc2)c2nonc12,T/C,[7],92 % of control
O=C1C=CC(=O)N1Cc1ccco1,T/C,"dose: 50.0 mg/kg/injection, schedule: Q01DX009 (ip), vehicle: saline",100 % of control
same,T/C,[1],91 % of control and 95 % of control
same,T/C,[2],100 % of control
same,T/C,[3],91 % of control
O=S(=O)(Nc1ccc(NS(=O)(=O)c2ccccc2)nc1)c1ccccc1,T/C,"dose: 100.0 mg/kg/injection, schedule: Q04DX003 (ip), vehicle: Klucel (hydroxypropylcellulose) (HPC)",100 % of control
same,T/C,"dose: 200.0 mg/kg/injection, schedule: Q04DX003 (ip), vehicle: Klucel (hydroxypropylcellulose) (HPC)",104 % of control
same,T/C,"dose: 400.0 mg/kg/injection, schedule: Q04DX003 (ip), vehicle: Klucel (hydroxypropylcellulose) (HPC)",100 % of control
O=C(CC(Cl)(C(F)(F)F)C(F)(F)F)c1cccc([N+](=O)[O-])c1,T/C,"dose: 12.5 mg/kg/injection, schedule: Q01DX001 (ip), vehicle: saline with Tween-80",113 % of control
same,T/C,"dose: 25.0 mg/kg/injection, schedule: Q01DX001 (ip), vehicle: saline with Tween-80",109 % of control
same,T/C,"dose: 50.0 mg/kg/injection, schedule: Q01DX001 (ip), vehicle: saline with Tween-80",109 % of control
CCOC(=O)NC1=C(N2CC2)C(=O)C(NC(=O)OCC)=C(N2CC2)C1=O,T/C,"dose: 0.78 mg/kg/injection, schedule: Q01DX009 (ip), vehicle: saline",199 % of control and 211 % of control and 212 % of control
same,T/C,"dose: 1.56 mg/kg/injection, schedule: Q01DX009 (ip), vehicle: saline",235 % of control and 238 % of control and 212 % of control
same,T/C,"dose: 3.12 mg/kg/injection, schedule: Q01DX009 (ip), vehicle: saline",100 % of control
CNC1(c2ccccc2)C(=O)CC2CCC1C2 (stereo not given),T/C,"dose: 25.0 mg/kg/injection, schedule: Q01DX001 (ip), vehicle: Klucel (hydroxypropylcellulose) (HPC)",105 % of control
same,T/C,"dose: 50.0 mg/kg/injection, schedule: Q01DX001 (ip), vehicle: Klucel (hydroxypropylcellulose) (HPC)",105 % of control
same,T/C,"dose: 100.0 mg/kg/injection, schedule: Q01DX001 (ip), vehicle: Klucel (hydroxypropylcellulose) (HPC)",100 % of control
CCCC(F)C(=O)OCC (stereo not given),T/C,[8],90 % of control
same,T/C,[4],100 % of control
same,T/C,[9],104 % of control
same,T/C,[5],109 % of control
same,T/C,"dose: 400.0 mg/kg/injection, schedule: Q01DX009 (ip), vehicle: saline with Tween-80",118 % of control
same,T/C,[6],100 % of control
O=C(NC(C(=O)O)C(O)c1cn(C(=O)OCc2ccccc2)cn1)OCc1ccccc1 (stereo not given),T/C,[7],113 % of control
same,T/C,[8],110 % of control
same,T/C,[9],98 % of control
CC(C)C1OC(=O)C=C2C3(C)CC=CC4(C)C(=O)OC(C43)C3OC213 (stereo not given),T/C,"dose: 5.0 micrograms/kg/injection, schedule: Q01DX009 (ip), vehicle: saline + alcohol",109 % of control
same,T/C,"dose: 20.0 micrograms/kg/injection, schedule: Q01DX009 (ip), vehicle: saline + alcohol",100 % of control
same,T/C,"dose: 80.0 micrograms/kg/injection, schedule: Q01DX009 (ip), vehicle: saline + alcohol",90 % of control
same,T/C,"dose: 250.0 micrograms/kg/injection, schedule: Q01DX009 (ip), vehicle: saline + alcohol",109 % of control
same,T/C,"dose: 1000.0 micrograms/kg/injection, schedule: Q01DX009 (ip), vehicle: saline + alcohol",109 % of control
same,T/C,"dose: 4000.0 micrograms/kg/injection, schedule: Q01DX009 (ip), vehicle: saline + alcohol",104 % of control
Cc1c([C@H](C)[C@@H]2NC[C@@H](C)C[C@H]2O)ccc2c1C[C@H]1[C@H]2CC=C2C[C@@H](O)CC[C@@]21C,T/C,"dose: 3.0 mg/kg/injection, schedule: Q01DX010 (ip), vehicle: carboxymethylcellulose (CMC)",115 % of control
